# Source: ChEMBL document CHEMBL3885881, “DrugMatrix”
# Species: Rattus norvegicus
# Assay: DrugMatrix - Regimen: Daily Repeat
# Assay type: toxicity, organism-based, Sprague-Dawley
# Parameters: regimen Daily Repeat, gender Male, age 6-8 weeks
# Conditions: in vivo, po, route oral GAVAGE, vehicle 100 % WATER; for ABSOLUTE BASOPHIL / ABSOLUTE EOSINOPHIL / ABSOLUTE LYMPHOCYTE / ABSOLUTE MONOCYTE / ABSOLUTE SEGMENTED NEUTROPHIL / BASOPHIL / EOSINOPHIL / ERYTHROCYTE COUNT / HEMATOCRIT / HEMOGLOBIN / LEUKOCYTE COUNT / LYMPHOCYTE / MEAN CORPUSCULAR HEMOGLOBIN / MEAN CORPUSCULAR HEMOGLOBIN CONCENTRATION / MEAN CORPUSCULAR VOLUME / MONOCYTE / NEUTROPHIL / NUCLEATED RED BLOOD CELLS / PLATELET COUNT: tissue Blood; for ALANINE AMINOTRANSFERASE / ALBUMIN / ALKALINE PHOSPHATASE / ASPARTATE AMINOTRANSFERASE / BLOOD UREA NITROGEN / CARBON DIOXIDE / CHLORIDE / CHOLESTEROL / CREATINE PHOSPHOKINASE / CREATININE / GLUCOSE / LACTATE DEHYDROGENASE / LIPASE / PHOSPHORUS / SODIUM / TOTAL BILIRUBIN / TOTAL PROTEIN / URIC ACID: tissue Plasma
# [1] = 100 mg/kg, 120 h, dose level Low, time 5 day
# [2] = 500 mg/kg, 72 h, dose level High, time 3 day
# [3] = 500 mg/kg, 120 h, dose level High, time 5 day
smiles,measurement,setting,value
CCN(CC)C(=S)SSC(=S)N(CC)CC,ABSOLUTE BASOPHIL,[1],0 CELLS/uL
same,ABSOLUTE EOSINOPHIL,[1],0 CELLS/uL
same,ABSOLUTE LYMPHOCYTE,[1],13796 CELLS/uL
same,ABSOLUTE MONOCYTE,[1],155.67 CELLS/uL
same,ABSOLUTE SEGMENTED NEUTROPHIL,[1],1615 CELLS/uL
same,BASOPHIL,[1],0%
same,EOSINOPHIL,[1],0%
same,ERYTHROCYTE COUNT,[1],5.47 x10E6/uL
same,HEMATOCRIT,[1],33.87%
same,HEMOGLOBIN,[1],13.53 G/DL
same,LEUKOCYTE COUNT,[1],15.57 x10E3/uL
same,LYMPHOCYTE,[1],89%
same,MEAN CORPUSCULAR HEMOGLOBIN,[1],24.8 pg
same,MEAN CORPUSCULAR HEMOGLOBIN CONCENTRATION,[1],39.97 G/DL
same,MEAN CORPUSCULAR VOLUME,[1],62 fL
same,MONOCYTE,[1],1%
same,NEUTROPHIL,[1],10%
same,NUCLEATED RED BLOOD CELLS,[1],0 /100WBC
same,PLATELET COUNT,[1],1356.33 x10E3/uL
same,ALANINE AMINOTRANSFERASE,[1],42.67 u/L
same,ALBUMIN,[1],4.1 G/DL
same,ALKALINE PHOSPHATASE,[1],265.33 u/L
same,ASPARTATE AMINOTRANSFERASE,[1],70 u/L
same,BLOOD UREA NITROGEN,[1],15.33 mg/dL
same,CARBON DIOXIDE,[1],31.67 mmol/L
same,CHLORIDE,[1],102.67 MEQ/L
same,CHOLESTEROL,[1],83.67 mg/dL
same,CREATINE PHOSPHOKINASE,[1],216.33 u/L
same,CREATININE,[1],0.15 mg/dL
same,GLUCOSE,[1],123.67 mg/dL
same,LACTATE DEHYDROGENASE,[1],231 u/L
same,LIPASE,[1],11.33 u/L
same,PHOSPHORUS,[1],11.73 mg/dL
same,SODIUM,[1],145.07 MEQ/L
same,TOTAL BILIRUBIN,[1],0.2 mg/dL
same,TOTAL PROTEIN,[1],6 G/DL
same,URIC ACID,[1],1.37 mg/dL
same,ABSOLUTE BASOPHIL,[2],0 CELLS/uL
same,ABSOLUTE EOSINOPHIL,[2],32 CELLS/uL
same,ABSOLUTE LYMPHOCYTE,[2],16158.67 CELLS/uL
same,ABSOLUTE MONOCYTE,[2],362.67 CELLS/uL
same,ABSOLUTE SEGMENTED NEUTROPHIL,[2],2246.67 CELLS/uL
same,BASOPHIL,[2],0%
same,EOSINOPHIL,[2],0.33%
same,ERYTHROCYTE COUNT,[2],5.54 x10E6/uL
same,HEMATOCRIT,[2],34.57%
same,HEMOGLOBIN,[2],13.7 G/DL
same,LEUKOCYTE COUNT,[2],18.8 x10E3/uL
same,LYMPHOCYTE,[2],85%
same,MEAN CORPUSCULAR HEMOGLOBIN,[2],24.73 pg
same,MEAN CORPUSCULAR HEMOGLOBIN CONCENTRATION,[2],39.63 G/DL
same,MEAN CORPUSCULAR VOLUME,[2],62.43 fL
same,MONOCYTE,[2],2.33%
same,NEUTROPHIL,[2],12.33%
same,NUCLEATED RED BLOOD CELLS,[2],0 /100WBC
same,PLATELET COUNT,[2],1410.67 x10E3/uL
same,ALANINE AMINOTRANSFERASE,[2],78.33 u/L
same,ALBUMIN,[2],3.87 G/DL
same,ALKALINE PHOSPHATASE,[2],211.67 u/L
same,ASPARTATE AMINOTRANSFERASE,[2],279.33 u/L
same,BLOOD UREA NITROGEN,[2],11.33 mg/dL
same,CARBON DIOXIDE,[2],30.33 mmol/L
same,CHLORIDE,[2],102.33 MEQ/L
same,CHOLESTEROL,[2],124 mg/dL
same,CREATINE PHOSPHOKINASE,[2],747.67 u/L
same,CREATININE,[2],0.15 mg/dL
same,GLUCOSE,[2],121.33 mg/dL
same,LACTATE DEHYDROGENASE,[2],433.33 u/L
same,LIPASE,[2],11.33 u/L
same,PHOSPHORUS,[2],10.77 mg/dL
same,SODIUM,[2],143.53 MEQ/L
same,TOTAL BILIRUBIN,[2],0.13 mg/dL
same,TOTAL PROTEIN,[2],5.93 G/DL
same,URIC ACID,[2],1.53 mg/dL
same,ABSOLUTE BASOPHIL,[3],0 CELLS/uL
same,ABSOLUTE EOSINOPHIL,[3],134 CELLS/uL
same,ABSOLUTE LYMPHOCYTE,[3],14987.33 CELLS/uL
same,ABSOLUTE MONOCYTE,[3],0 CELLS/uL
same,ABSOLUTE SEGMENTED NEUTROPHIL,[3],1378.67 CELLS/uL
same,BASOPHIL,[3],0%
same,EOSINOPHIL,[3],0.67%
same,ERYTHROCYTE COUNT,[3],4.95 x10E6/uL
same,HEMATOCRIT,[3],30.57%
same,HEMOGLOBIN,[3],12.3 G/DL
same,LEUKOCYTE COUNT,[3],16.5 x10E3/uL
same,LYMPHOCYTE,[3],90.33%
same,MEAN CORPUSCULAR HEMOGLOBIN,[3],24.83 pg
same,MEAN CORPUSCULAR HEMOGLOBIN CONCENTRATION,[3],40.2 G/DL
same,MEAN CORPUSCULAR VOLUME,[3],61.67 fL
same,MONOCYTE,[3],0%
same,NEUTROPHIL,[3],9%
same,NUCLEATED RED BLOOD CELLS,[3],0 /100WBC
same,PLATELET COUNT,[3],1031.33 x10E3/uL
same,ALANINE AMINOTRANSFERASE,[3],55 u/L
same,ALBUMIN,[3],3.83 G/DL
same,ALKALINE PHOSPHATASE,[3],254 u/L
same,ASPARTATE AMINOTRANSFERASE,[3],134.33 u/L
same,BLOOD UREA NITROGEN,[3],16.33 mg/dL
same,CARBON DIOXIDE,[3],27 mmol/L
same,CHLORIDE,[3],102.67 MEQ/L
same,CHOLESTEROL,[3],109 mg/dL
same,CREATINE PHOSPHOKINASE,[3],292.67 u/L
same,CREATININE,[3],0.16 mg/dL
same,GLUCOSE,[3],155.33 mg/dL
same,LACTATE DEHYDROGENASE,[3],217.33 u/L
same,LIPASE,[3],11.33 u/L
same,PHOSPHORUS,[3],12 mg/dL
same,SODIUM,[3],141.9 MEQ/L
same,TOTAL BILIRUBIN,[3],0.17 mg/dL
same,TOTAL PROTEIN,[3],6 G/DL
same,URIC ACID,[3],1.6 mg/dL
